| Structure (SMILES) | melting point [°C] |
| --- | --- |
| COC(=O)N1CCCCC(Nc2ncccc2-c2cnc3[nH]ccc3n2)C1 (stereo not shown) [Example I-13, 3-[3-(5H-Pyrrolo[2,3-b]pyrazin-2-yl)-pyridin-2-ylamino]-azepane-1-carboxylic acid methyl ester] | 90 to 100 |
| CC(=O)N1CCCCC(Nc2ncccc2-c2cnc3[nH]ccc3n2)C1 (stereo not shown) [Example I-12, 1-{3-[3-(5H-Pyrrolo[2,3-b]pyrazin-2-yl)-pyridin-2-ylamino]-azepan-1-yl}-ethanone] | 100 to 110 |
| CC(=O)N1CCCC(Nc2nc(C)ccc2-c2cnc3[nH]cc(Cl)c3n2)C1 (stereo not shown) [Example I-39, 1-{3-[3-(7-Chloro-5H-pyrrolo[2,3-b]pyrazin-2-yl)-6-methyl-pyridin-2-ylamino]-piperidin-1-yl}-ethanone] | 254 to 259 |
| COC(=O)N1CC[C@@H](Nc2ncccc2-c2cnc3[nH]ccc3n2)C1 [Example I-4, (R)-3-[3-(5H-Pyrrolo[2,3-b]pyrazin-2-yl)-pyridin-2-ylamino]-pyrrolidine-1-carboxylic acid methyl ester] | 221 to 224 |
| CS(=O)(=O)N1CC[C@H](Nc2ncccc2-c2cnc3[nH]ccc3n2)C1 [Example I-11, ((S)-1-Methanesulfonyl-pyrrolidin-3-yl)-[3-(5H-pyrrolo[2,3-b]pyrazin-2-yl)-pyridin-2-yl]-amine] | 222 to 224 |
| CS(=O)(=O)N1CCCC(Nc2ncccc2-c2cnc3[nH]ccc3n2)CC1 (stereo not shown) [Example I-37, (1-Methane-sulfonyl-azepan-4-yl)-[3-(5H-pyrrolo[2,3-b]pyrazin-2-yl)-pyridin-2-yl]-amine] | 215 to 217 |
| CC(C)CS(=O)(=O)N1CC[C@@H](Nc2ncccc2-c2cnc3[nH]ccc3n2)C1 [Example I-19, [(R)-1-(2-Methyl-propane-1-sulfonyl)-pyrrolidin-3-yl]-[3-(5H-pyrrolo[2,3-b]pyrazin-2-yl)-pyridin-2-yl]-amine] | 134 to 137 |
| FC(F)(F)CN1CCC[C@H](Nc2ncccc2-c2cnc3[nH]ccc3n2)C1 [Example I-33, [3-(5H-Pyrrolo[2,3-b]pyrazin-2-yl)-pyridin-2-yl]-[(S)-1-(2,2,2-trifluoro-ethyl)-piperidin-3-yl]-amine] | 207 to 209 |
| CCC(=O)N1CC[C@@H](Nc2ncccc2-c2cnc3[nH]ccc3n2)C1 [Example I-20, 1-{(R)-3-[3-(5H-Pyrrolo[2,3-b]pyrazin-2-yl)-pyridin-2-ylamino]-pyrrolidin-1-yl}-propan-1-one] | 105 to 110 |
| CCS(=O)(=O)N1CCCC(Nc2nc(C)ccc2-c2cnc3[nH]ccc3n2)C1 (stereo not shown) [Example I-34, (1-Ethane-sulfonyl-piperidin-3-yl)-[6-methyl-3-(5H-pyrrolo[2,3-b]pyrazin-2-yl)-pyridin-2-yl]-amine] | 204 to 207 |
| O=S(=O)(CC1CC1)N1CCC[C@H](Nc2ncccc2-c2cnc3[nH]ccc3n2)C1 [Example I-38, ((S)-1-Cyclopropyl-methanesulfonyl-piperidin-3-yl)-[3-(5H-pyrrolo[2,3-b]pyrazin-2-yl)-pyridin-2-yl]-amine] | 209 to 212 |
| CS(=O)(=O)N1CCCCC(Nc2ncccc2-c2cnc3[nH]ccc3n2)C1 (stereo not shown) [Example I-14, (1-Methane-sulfonyl-azepan-3-yl)-[3-(5H-pyrrolo[2,3-b]pyrazin-2-yl)-pyridin-2-yl]-amine] | 213 to 216 |
| COC(=O)N1CC[C@H](Nc2ncccc2-c2cnc3[nH]ccc3n2)C1 [Example I-10, (S)-3-[3-(5H-Pyrrolo[2,3-b]pyrazin-2-yl)-pyridin-2-ylamino]-pyrrolidine-1-carboxylic acid methyl ester] | 222 to 225 |
| Cc1ccc(-c2cnc3[nH]ccc3n2)c(NC2CCCN(S(C)(=O)=O)C2)n1 (stereo not shown) [Example I-31, (1-Methane-sulfonyl-piperidin-3-yl)-[6-methyl-3-(5H-pyrrolo[2,3-b]pyrazin-2-yl)-pyridin-2-yl]-amine] | 253 to 255 |

Second part, the molecule after the results:

| melting point [°C] | Structure (SMILES) |
| --- | --- |
| 198 to 200 | CCCS(=O)(=O)N1CC[C@@H](Nc2ncccc2-c2cnc3[nH]ccc3n2)C1 [Example I-17, [(R)-1-(Propane-1-sulfonyl)-pyrrolidin-3-yl]-[3-(5H-pyrrolo[2,3-b]pyrazin-2-yl)-pyridin-2-yl]-amine] |
| 218 to 220 | Cc1ccc(-c2cnc3[nH]ccc3n2)c(NC2CCCN(S(=O)(=O)CC(C)(C)C)C2)n1 (stereo not shown) [Example I-36, [1-(2,2-Dimethyl-propane-1-sulfonyl)-piperidin-3-yl]-[6-methyl-3-(5H-pyrrolo[2,3-b]pyrazin-2-yl)-pyridin-2-yl]-amine] |
| 178 to 180 | CCCS(=O)(=O)N1C[C@@H](C)C[C@H](Nc2ncccc2-c2cnc3[nH]ccc3n2)C1 [Example I-25, [(3S,5S)-5-Methyl-1-(propane-1-sulfonyl)-piperidin-3-yl]-[3-(5H-pyrrolo[2,3-b]pyrazin-2-yl)-pyridin-2-yl]-amine] |
| 187 to 189 | CC(C)S(=O)(=O)N1CC[C@@H](Nc2ncccc2-c2cnc3[nH]ccc3n2)C1 [Example I-18, [(R)-1-(Propane-2-sulfonyl)-pyrrolidin-3-yl]-[3-(5H-pyrrolo[2,3-b]pyrazin-2-yl)-pyridin-2-yl]-amine] |
| 230 to 232 | CCS(=O)(=O)N1CC[C@@H](Nc2ncccc2-c2cnc3[nH]ccc3n2)C1 [Example I-16, ((R)-1-Ethanesulfonyl-pyrrolidin-3-yl)-[3-(5H-pyrrolo[2,3-b]pyrazin-2-yl)-pyridin-2-yl]-amine] |
| 160 to 162 | CC(C)CCS(=O)(=O)N1CC[C@@H](Nc2ncccc2-c2cnc3[nH]ccc3n2)C1 [Example I-27, [(R)-1-(3-Methyl-butane-1-sulfonyl)-pyrrolidin-3-yl]-[3-(5H-pyrrolo[2,3-b]pyrazin-2-yl)-pyridin-2-yl]-amine] |
| 115 to 120 | CCCC(=O)N1CC[C@@H](Nc2ncccc2-c2cnc3[nH]ccc3n2)C1 [Example I-21, 1-{(R)-3-[3-(5H-Pyrrolo[2,3-b]pyrazin-2-yl)-pyridin-2-ylamino]-pyrrolidin-1-yl}-butan-1-one] |
| 224 to 226 | CS(=O)(=O)N1CC[C@@H](Nc2ncccc2-c2cnc3[nH]ccc3n2)C1 [Example I-5, ((R)-1-Methanesulfonyl-pyrrolidin-3-yl)-[3-(5H-pyrrolo[2,3-b]pyrazin-2-yl)-pyridin-2-yl]-amine] |

From patent US8618103B2 (priority 2009, dated 2013)
